Measurements reported in ChEMBL document CHEMBL1148870, “Novel inhibitors of VEGF receptors-1 and -2 based on azole-5-carboxamide templates” (Bioorg Med Chem Lett, 2007).
Calls of active or inactive are those of the source. The rule behind the calls is not given here.

Columns and labels:
Homo sapiens [1] = organism: Homo sapiens; experiment: Inhibition of bcr-Abl at 10 uM; set-up: scale not given: the % may be the effect or the level left
[2] = target: Glycogen synthase kinase-3 beta (Homo sapiens) (UniProt P49841); experiment: Inhibition of GSK3-beta at 10 uM; set-up: scale not given: the % may be the effect or the level left
Sequence of Glycogen synthase kinase-3 beta (Homo sapiens) (P49841 whole entry, looked up): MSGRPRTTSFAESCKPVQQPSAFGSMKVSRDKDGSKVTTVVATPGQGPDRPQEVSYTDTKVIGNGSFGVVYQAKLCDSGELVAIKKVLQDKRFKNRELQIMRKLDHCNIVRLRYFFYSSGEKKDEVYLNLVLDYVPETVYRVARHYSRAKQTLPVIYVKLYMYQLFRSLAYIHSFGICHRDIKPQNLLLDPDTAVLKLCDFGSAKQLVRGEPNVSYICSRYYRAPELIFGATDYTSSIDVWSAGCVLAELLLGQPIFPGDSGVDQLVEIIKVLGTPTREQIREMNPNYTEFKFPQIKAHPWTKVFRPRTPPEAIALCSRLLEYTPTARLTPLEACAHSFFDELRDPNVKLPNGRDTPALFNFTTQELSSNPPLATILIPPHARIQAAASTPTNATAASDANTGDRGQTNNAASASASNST

[3] = target: Hepatocyte growth factor receptor (Homo sapiens) (UniProt P08581); experiment: Inhibition of cMet at 10 uM; set-up: scale not given: the % may be the effect or the level left
[4] = target: Vascular endothelial growth factor receptor 1 (Homo sapiens, UniProt P17948); experiment: Inhibition of VEGFR1 assessed as inhibition of phosphorylation in presence of 2 uM ATP by HTRF assay; format: functional
Sequence of Vascular endothelial growth factor receptor 1 (P17948 whole entry): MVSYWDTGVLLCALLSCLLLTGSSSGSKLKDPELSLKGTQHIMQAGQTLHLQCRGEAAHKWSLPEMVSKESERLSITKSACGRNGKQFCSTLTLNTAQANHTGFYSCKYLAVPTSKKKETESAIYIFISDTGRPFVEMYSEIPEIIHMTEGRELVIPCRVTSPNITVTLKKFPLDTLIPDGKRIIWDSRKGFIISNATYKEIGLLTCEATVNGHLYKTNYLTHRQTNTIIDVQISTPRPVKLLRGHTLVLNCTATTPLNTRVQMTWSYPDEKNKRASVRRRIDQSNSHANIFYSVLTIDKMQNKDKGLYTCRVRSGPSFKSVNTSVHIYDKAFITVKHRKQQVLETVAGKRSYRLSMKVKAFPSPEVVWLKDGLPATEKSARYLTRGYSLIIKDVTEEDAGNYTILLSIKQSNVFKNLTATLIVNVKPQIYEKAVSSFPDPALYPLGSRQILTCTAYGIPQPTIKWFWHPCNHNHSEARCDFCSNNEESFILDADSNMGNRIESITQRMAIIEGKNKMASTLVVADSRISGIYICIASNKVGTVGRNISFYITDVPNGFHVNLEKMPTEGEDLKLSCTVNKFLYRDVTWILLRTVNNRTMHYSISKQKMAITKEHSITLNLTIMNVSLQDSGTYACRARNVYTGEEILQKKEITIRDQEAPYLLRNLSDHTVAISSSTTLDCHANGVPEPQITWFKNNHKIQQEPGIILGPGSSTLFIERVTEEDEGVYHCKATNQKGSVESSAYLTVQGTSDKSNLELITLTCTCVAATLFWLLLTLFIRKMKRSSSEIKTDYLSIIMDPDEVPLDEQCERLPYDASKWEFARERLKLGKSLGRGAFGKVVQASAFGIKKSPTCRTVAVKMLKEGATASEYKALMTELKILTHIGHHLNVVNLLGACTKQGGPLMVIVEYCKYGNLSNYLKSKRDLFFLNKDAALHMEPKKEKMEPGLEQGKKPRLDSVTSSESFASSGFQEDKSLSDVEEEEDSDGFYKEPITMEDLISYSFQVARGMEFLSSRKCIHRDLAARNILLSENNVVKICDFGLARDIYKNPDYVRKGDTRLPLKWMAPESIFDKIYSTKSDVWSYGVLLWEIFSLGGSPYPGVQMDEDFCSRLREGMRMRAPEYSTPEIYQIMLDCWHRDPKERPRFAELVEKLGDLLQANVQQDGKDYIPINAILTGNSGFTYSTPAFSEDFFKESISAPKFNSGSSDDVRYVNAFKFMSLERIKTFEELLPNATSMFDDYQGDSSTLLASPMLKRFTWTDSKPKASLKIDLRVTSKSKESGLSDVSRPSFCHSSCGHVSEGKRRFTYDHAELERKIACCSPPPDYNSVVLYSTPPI

[5] = target: Receptor tyrosine-protein kinase erbB-2 (Homo sapiens) (UniProt P04626); experiment: Inhibition of ErbB2/Her2 at 10 uM; set-up: scale not given: the % may be the effect or the level left
Homo sapiens [6] = organism: Homo sapiens; experiment: Inhibition of PKA at 10 uM; set-up: scale not given: the % may be the effect or the level left
Homo sapiens [7] = organism: Homo sapiens; experiment: Inhibition of InR at 10 uM; set-up: scale not given: the % may be the effect or the level left
Homo sapiens [8] = organism: Homo sapiens; experiment: Inhibition of Cdk1 at 10 uM; set-up: scale not given: the % may be the effect or the level left
[9] = target: T1, Vascular endothelial growth factor receptor 2 (Homo sapiens, UniProt P35968); experiment: Inhibition of VEGFR2 assessed as inhibition of phosphorylation in presence of 2 uM ATP by HTRF assay; format: functional
[10] = target: Epidermal growth factor receptor (Homo sapiens) (UniProt P00533); experiment: Inhibition of ErbB1 at 10 uM; set-up: scale not given: the % may be the effect or the level left
[11] = Passive diffusion assessed as intrinsic permeability across Caco-2 cell membrane; format: ADME, cell-based; conditions: human, read-out: permeability (converted)
[12] = target: RAC-alpha serine/threonine-protein kinase (Homo sapiens) (UniProt P31749); experiment: Inhibition of PKB/Akt at 10 uM; set-up: scale not given: the % may be the effect or the level left
Sequence of RAC-alpha serine/threonine-protein kinase (Homo sapiens) (P31749 whole entry): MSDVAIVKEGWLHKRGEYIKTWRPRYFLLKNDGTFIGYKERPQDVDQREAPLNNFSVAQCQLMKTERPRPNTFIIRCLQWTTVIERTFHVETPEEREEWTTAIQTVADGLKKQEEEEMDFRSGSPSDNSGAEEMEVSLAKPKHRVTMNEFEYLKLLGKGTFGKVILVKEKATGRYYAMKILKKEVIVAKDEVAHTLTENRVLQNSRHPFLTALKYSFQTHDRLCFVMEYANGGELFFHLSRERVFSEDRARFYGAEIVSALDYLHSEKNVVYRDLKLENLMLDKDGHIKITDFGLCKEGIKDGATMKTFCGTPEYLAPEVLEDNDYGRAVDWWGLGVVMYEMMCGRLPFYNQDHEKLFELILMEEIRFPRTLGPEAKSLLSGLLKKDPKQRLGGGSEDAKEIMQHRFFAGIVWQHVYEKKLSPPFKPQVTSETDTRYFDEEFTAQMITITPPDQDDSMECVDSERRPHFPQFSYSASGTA

[13] = target: RAF proto-oncogene serine/threonine-protein kinase (Homo sapiens) (UniProt P04049); experiment: Inhibition of Raf1 at 10 uM; set-up: scale not given: the % may be the effect or the level left
Sequence of RAF proto-oncogene serine/threonine-protein kinase (Homo sapiens) (P04049 whole entry): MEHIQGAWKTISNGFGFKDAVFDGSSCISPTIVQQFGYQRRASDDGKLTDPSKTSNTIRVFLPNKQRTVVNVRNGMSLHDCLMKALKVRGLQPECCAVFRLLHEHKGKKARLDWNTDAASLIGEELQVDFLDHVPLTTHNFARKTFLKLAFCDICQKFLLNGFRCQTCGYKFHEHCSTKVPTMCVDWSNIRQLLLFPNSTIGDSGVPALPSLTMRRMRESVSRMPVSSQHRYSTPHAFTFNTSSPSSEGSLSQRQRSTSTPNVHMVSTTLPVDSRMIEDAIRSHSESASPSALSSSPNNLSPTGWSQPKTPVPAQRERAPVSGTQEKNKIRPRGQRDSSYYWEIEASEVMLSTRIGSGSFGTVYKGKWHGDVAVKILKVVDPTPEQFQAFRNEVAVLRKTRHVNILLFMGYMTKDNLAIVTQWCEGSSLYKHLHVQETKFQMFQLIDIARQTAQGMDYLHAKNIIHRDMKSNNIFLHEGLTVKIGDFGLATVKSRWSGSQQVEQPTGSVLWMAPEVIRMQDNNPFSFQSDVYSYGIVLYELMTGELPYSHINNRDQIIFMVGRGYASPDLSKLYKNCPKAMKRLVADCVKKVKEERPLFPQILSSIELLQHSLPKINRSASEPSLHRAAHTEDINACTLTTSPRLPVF

[14] = target: T1, Vascular endothelial growth factor receptor 2; experiment: Inhibition of VEGFR2 assessed as inhibition of phosphorylation in human 293 cells by cell-based ELISA; format: functional, HEK293
[15] = target: Cyclin-dependent kinase 2 (Homo sapiens) (UniProt P24941); experiment: Inhibition of Cdk2 at 10 uM; set-up: scale not given: the % may be the effect or the level left
[16] = target: Insulin-like growth factor 1 receptor (Homo sapiens) (UniProt P08069); experiment: Inhibition of IGF1R at 10 uM; set-up: scale not given: the % may be the effect or the level left
[17] = target: Fibroblast growth factor receptor 1 (Homo sapiens) (UniProt P11362); experiment: Inhibition of FGFR1 at 10 uM; set-up: scale not given: the % may be the effect or the level left
Sequence of Fibroblast growth factor receptor 1 (Homo sapiens) (P11362 22-822 limits assumed): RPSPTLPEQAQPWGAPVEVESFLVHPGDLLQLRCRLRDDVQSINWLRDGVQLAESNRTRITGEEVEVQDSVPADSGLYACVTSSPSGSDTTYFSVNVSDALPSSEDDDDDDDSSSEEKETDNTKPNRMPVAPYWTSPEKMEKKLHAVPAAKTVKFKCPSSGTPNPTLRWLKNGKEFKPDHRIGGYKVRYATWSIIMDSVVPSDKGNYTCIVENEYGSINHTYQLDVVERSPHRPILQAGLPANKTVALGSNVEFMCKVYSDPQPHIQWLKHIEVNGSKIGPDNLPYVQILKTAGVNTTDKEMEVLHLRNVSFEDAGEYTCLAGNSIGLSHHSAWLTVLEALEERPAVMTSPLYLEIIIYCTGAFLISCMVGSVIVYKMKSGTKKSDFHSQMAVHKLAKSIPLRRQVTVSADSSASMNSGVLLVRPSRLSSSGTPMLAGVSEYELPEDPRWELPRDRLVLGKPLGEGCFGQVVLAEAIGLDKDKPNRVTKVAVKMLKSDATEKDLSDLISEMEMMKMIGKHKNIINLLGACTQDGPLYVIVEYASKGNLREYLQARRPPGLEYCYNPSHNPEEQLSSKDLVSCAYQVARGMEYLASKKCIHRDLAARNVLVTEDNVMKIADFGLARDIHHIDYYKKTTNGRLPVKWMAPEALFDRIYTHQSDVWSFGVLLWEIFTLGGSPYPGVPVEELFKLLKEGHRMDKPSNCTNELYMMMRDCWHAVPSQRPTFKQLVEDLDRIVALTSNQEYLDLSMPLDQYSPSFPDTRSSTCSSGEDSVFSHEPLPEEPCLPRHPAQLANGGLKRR

Caco-2 = experiment: Passive diffusion assessed as absorption potential across Caco-2 cell membrane; format: ADME, cell-based; conditions: human
[18] = target: Vascular endothelial growth factor receptor 3 (Homo sapiens) (UniProt P35916); experiment: Inhibition of Flt4 at 10 uM; set-up: scale not given: the % may be the effect or the level left
Sequence of Vascular endothelial growth factor receptor 3 (Homo sapiens) (P35916 whole entry): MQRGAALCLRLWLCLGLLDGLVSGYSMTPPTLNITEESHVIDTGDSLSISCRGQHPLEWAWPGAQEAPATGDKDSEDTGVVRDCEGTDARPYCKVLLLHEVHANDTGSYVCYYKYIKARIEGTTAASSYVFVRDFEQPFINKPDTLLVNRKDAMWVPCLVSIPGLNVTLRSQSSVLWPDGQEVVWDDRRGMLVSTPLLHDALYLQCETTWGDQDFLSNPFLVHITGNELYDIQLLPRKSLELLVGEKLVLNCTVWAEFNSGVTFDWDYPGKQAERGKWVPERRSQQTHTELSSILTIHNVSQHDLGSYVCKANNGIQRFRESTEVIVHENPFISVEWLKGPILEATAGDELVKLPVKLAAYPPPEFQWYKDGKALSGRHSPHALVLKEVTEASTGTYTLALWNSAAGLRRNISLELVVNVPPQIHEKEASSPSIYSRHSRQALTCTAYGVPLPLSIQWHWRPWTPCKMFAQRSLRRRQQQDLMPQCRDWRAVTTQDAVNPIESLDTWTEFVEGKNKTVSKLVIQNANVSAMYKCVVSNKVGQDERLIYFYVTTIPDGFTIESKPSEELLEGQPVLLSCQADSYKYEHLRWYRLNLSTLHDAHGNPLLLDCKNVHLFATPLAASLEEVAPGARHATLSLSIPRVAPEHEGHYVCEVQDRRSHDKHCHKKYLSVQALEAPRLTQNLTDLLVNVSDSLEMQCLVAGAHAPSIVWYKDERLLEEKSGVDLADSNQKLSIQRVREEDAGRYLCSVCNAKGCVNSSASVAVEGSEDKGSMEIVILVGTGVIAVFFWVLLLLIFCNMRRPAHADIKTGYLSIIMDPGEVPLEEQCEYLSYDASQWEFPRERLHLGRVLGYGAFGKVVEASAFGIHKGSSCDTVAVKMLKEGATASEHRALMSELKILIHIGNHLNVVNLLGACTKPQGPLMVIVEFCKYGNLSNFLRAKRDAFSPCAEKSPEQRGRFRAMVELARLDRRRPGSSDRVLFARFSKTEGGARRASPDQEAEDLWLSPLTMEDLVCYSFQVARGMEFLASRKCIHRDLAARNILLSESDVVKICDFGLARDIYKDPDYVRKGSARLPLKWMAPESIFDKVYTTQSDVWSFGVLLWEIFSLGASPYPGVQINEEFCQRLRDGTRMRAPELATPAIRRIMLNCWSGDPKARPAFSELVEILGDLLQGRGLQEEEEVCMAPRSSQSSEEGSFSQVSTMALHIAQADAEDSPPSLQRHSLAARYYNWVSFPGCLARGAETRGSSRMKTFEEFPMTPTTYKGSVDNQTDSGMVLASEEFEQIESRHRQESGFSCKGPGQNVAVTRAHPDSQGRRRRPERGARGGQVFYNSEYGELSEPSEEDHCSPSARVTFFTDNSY

[19] = target: Receptor-type tyrosine-protein kinase FLT3 (Homo sapiens) (UniProt P36888); experiment: Inhibition of Flt3 at 10 uM; set-up: scale not given: the % may be the effect or the level left
[20] = target: T1, Vascular endothelial growth factor receptor 2; experiment: Displacement of [32P]ATP from human VEGFR2 after 45 mins
A-431 = experiment: Cytotoxicity against human A431 cells after 24 hrs; format: functional; conditions: A-431, 24 h
DU-145 = experiment: Cytotoxicity against human DU145 cells after 24 hrs; format: functional; conditions: DU-145, 24 h
DLD-1 = experiment: Cytotoxicity against human DLD1 cells after 24 hrs; format: functional; conditions: DLD-1, 24 h
HEK293 = experiment: Cytotoxicity against HEK293 cells after 24 hrs; format: functional, cell-based; conditions: Homo sapiens

SMILES | Activity (Homo sapiens [1]) [%] | Activity [2] [%] | Activity [3] [%] | IC50 [4] [nM] | Activity [5] [%] | Activity (Homo sapiens [6]) [%] | Activity (Homo sapiens [7]) [%] | Activity (Homo sapiens [8]) [%] | IC50 [9] [nM] | Activity [10] [%] | Papp [11] [×10⁻⁶ cm/s] | Activity [12] [%] | Activity [13] [%] | IC50 [14] [nM] | Activity [15] [%] | Activity [16] [%] | Activity [17] [%] | Activity (Caco-2) | Activity [18] [%] | Activity [19] [%] | also measured
CCc1ccc(NC(=O)c2ccnn2CCc2ccncc2)cc1 | > 30 | > 30 | > 30 | 220 | > 30 | > 30 | > 30 | > 30 | 120 | < 30 | 9.7 | > 30 | > 30 | 86 | > 30 | > 30 | > 30 | Active | > 30 | > 30 | 
O=C(Nc1cccc(OC(F)(F)Cl)c1)c1ccnn1CCc1ccncc1 | > 30 | > 30 | > 30 | 320 | > 30 | > 30 | > 30 | > 30 |  | < 30 | 4.73 | > 30 | > 30 | 21 | > 30 | > 30 | > 30 | Active | > 30 | > 30 | Ki [20]: 90 nM; Ki [9]: 70 nM
O=C(Nc1ccc(OC(F)(F)F)cc1)c1ccnn1CCc1ccncc1 | > 30 | > 30 | > 30 | 190 | > 30 | > 30 | > 30 | > 30 | 28 | < 30 | 7.03 | > 30 | > 30 | 18 | > 30 | > 30 | > 30 | Active | > 30 | > 30 | Ki [20]: 80 nM; Ki [9]: 90 nM
CC(C)c1ccc(NC(=O)c2ccnn2CCc2ccncc2)cc1 | > 30 | > 30 | > 30 | 440 | > 30 | > 30 | > 30 | > 30 | 74 | < 30 | 8.18 | > 30 | > 30 | 53 | > 30 | > 30 | > 30 | Active | > 30 | > 30 | 
CC(C)(C)c1ccc(NC(=O)c2ccnn2CCc2ccncc2)cc1 | > 30 | > 30 | > 30 | 590 | > 30 | > 30 | > 30 | > 30 | 42 | < 30 | 7.43 | > 30 | > 30 | 33 | > 30 | > 30 | > 30 | Active | > 30 | > 30 | Ki [20]: 140 nM; Ki [9]: 130 nM
O=C(Nc1ccc(C(F)(F)F)cc1)c1ccnn1CCc1ccncc1 | > 30 | > 30 | > 30 | 380 | > 30 | > 30 | > 30 | > 30 | 69 | < 30 | 6.42 | > 30 | > 30 | 48 | > 30 | > 30 | > 30 | Active | > 30 | > 30 | 
O=C(Nc1ccc(C(F)(F)F)c(Cl)c1)c1ccnn1CCc1ccncc1 | > 30 | > 30 | > 30 | 980 | > 30 | > 30 | > 30 | > 30 | 180 | < 30 | 4.6 | > 30 | > 30 | 95 | > 30 | > 30 | > 30 | Active | > 30 | > 30 | Ki [20]: 160 nM; Ki [9]: 170 nM
COc1ccc(NC(=O)c2ccnn2CCc2ccncc2)cc1OC | > 30 | > 30 | > 30 | 1230 | > 30 | > 30 | > 30 | > 30 | 440 | < 30 |  | > 30 | > 30 | 90 | > 30 | > 30 | > 30 |  | > 30 | > 30 | GI50 (A-431): 50 nM; GI50 (DU-145): 220 nM; GI50 (DLD-1): 125 nM; Activity (HEK293): Active
O=C(Nc1ccc(Cl)cc1)c1ccnn1CCc1ccncc1 | > 30 | > 30 | > 30 | 97 | > 30 | > 30 | > 30 | > 30 | 77 | < 30 | 6.95 | > 30 | > 30 | 90 | > 30 | > 30 | > 30 | Active | > 30 | > 30 | Ki [20]: 90 nM; Ki [9]: 110 nM
CC(C)(C)c1ccc(NC(=O)c2nccn2CCc2ccncc2)cc1 | > 30 | > 30 | > 30 | 3860 | > 30 | > 30 | > 30 | > 30 | 940 | < 30 |  | > 30 | > 30 | 2250 | > 30 | > 30 | > 30 |  | > 30 | > 30 | 
O=C(Nc1ccc2[nH]ncc2c1)c1ccnn1CCc1ccncc1 | > 30 | > 30 | > 30 | > 10000 | > 30 | > 30 | > 30 | > 30 | 5150 | < 30 |  | > 30 | > 30 | > 10000 | > 30 | > 30 | > 30 |  | > 30 | > 30 | 
